In one assay the test system is SW480 colon cancer cells. The experiment in a line: Cell viability assay (CellTiter-Blue) in SW480 cells. Format: cell-based. Conditions: Homo sapiens, 96 h, four days; for inhibition at 10 µM: read-out: percent inhibition at 10 μM (given for EC50 of >10 μM); for EC50: CellTiter-Blue, 10 μM to 0.0045 μM. The procedure: Representative compounds were screened using the following assay procedure to assess the effect on cell viability as described below.
Each compound was dissolved in DMSO as a 10 mM stock and used to prepare compound source plates. Serial dilution (1:3, 8-point dose-response curves from 10 μM to 0.0045 μM) and compound transfer was performed using the ECHO 550 (Labcyte, Sunnyvale, Calif.) into 96-well clear bottom, black-walled plates (Corning-Costar).
Approximately 2×10^3 SW480 colon cancer cells were seeded into each well and allowed to incubate in the presence or absence of compound for four days at 37° C./5% CO2. Eight replicates of DMSO-treated cells served as controls and cells treated with compound were performed in duplicate.
After incubation, 20 μL of CellTiter-Blue (Promega) was added to each well allowed to incubate for approximately 3 hours. This reagent was a buffered solution which contains resazurin, metabolically active cells were able to reduce rezarurin (blue) into resorufin (pink) which was highly fluorescent. This measured fluorescence was used as a readout for cell viability.
After incubation, the plates were read at Ex 560 nm Em 590 nm (Cytation 3, BioTek). Dose-response curves were generated and EC50 concentration values were calculated using non-linear regression curve fit in the GraphPad Prism (San Diego, Calif.) or Dotmatics' Studies Software (Bishops Stortford, UK). For EC50 of >10 μM, the percent inhibition at 10 μM is provided.
(Resazurin is reduced to fluorescent resorufin, in cell work by metabolically active cells.)

The test system of assay [1] is primary human fibroblasts derived from IPF patients (LL29 cells) treated with TGF-β1. As to the kind of experiment: Inhibition of the fibrotic process: αSMA staining in TGF-β1-treated LL29 fibroblasts. It is filed as cell-based. Particulars: Fibroblast; for inhibition at 10 µM: LL29 fibroblasts treated with TGF-β1, Table 4, read-out: percent inhibition at 10 μM (given in parentheses for EC50 >10 μM); for EC50: 96 h, LL29 fibroblasts treated with TGF-β1 (20 ng/mL), 4 days, Table 4. The source says: Representative compounds were screened using primary human fibroblasts (derived from IPF patients) treated with TGF-β1 to determine their ability to inhibit the fibrotic process.
Human Fibroblast Cell Culture: Primary human fibroblasts derived from IPF patients (LL29 cells) [^1Xiaoqiu Liu, et. al., “Fibrotic Lung Fibroblasts Show Blunted Inhibition by cAMP Due to Deficient cAMP Response Element-Binding Protein Phosphorylation”, Journal of Pharmacology and Experimental Therapeutics (2005), 315(2), 678-687; ^2Watts, K. L., et. al., “RhoA signaling modulates cyclin D1 expression in human lung fibroblasts; implications for idiopathic pulmonary fibrosis”, Respiratory Research (2006), 7(1), 88] were obtained from American Type Culture Collection (ATCC) and expanded in F12 medium supplemented with 15% Fetal Bovine Serum and Penicillin/Streptomycin.
Compound Screening: Each compound was dissolved in DMSO as a 10 mM stock and used to prepare compound source plates. Serial dilution (1:2, 11-point dose-response curves from 10 μM to […]) and compound transfer was performed using the ECHO 550 (Labcyte, Sunnyvale, Calif.) into 384-well clear bottom assay plates (Greiner Bio-One) with appropriate DMSO backfill for a final DMSO concentration of 0.1%. LL29 cells are plated at 1,500 cells/well in 80 μL/well F12 medium supplemented with 1% Fetal Bovine Serum. One hour after addition of the cells, TGF-β1 (Peprotech; 20 ng/mL) was added to the plates to induce fibrosis (ref. 1 and 2 above). Wells treated with TGF-β1 and containing DMSO were used as controls. Cells were incubated at 37° C. and 5% CO2 for 4 days. Following incubation for 4 days, SYTOX green nucleic acid stain (Life Technologies [Thermo Fisher Scientific]) was added to the wells at a final concentration of 1 μM and incubated at room temperature for 30 min. Cells were then fixed using 4% formaldehyde (Electron Microscopy Sciences), washed 3 times with PBS followed by blocking and permeabilization using 3% Bovine Serum Albumin (BSA; Sigma) and 0.3% Triton X-100 (Sigma) in PBS. Cells were then stained with antibody specific to α-smooth muscle actin (αSMA; Abcam) (ref. 1 and 2 above) in 3% Bovine Serum Albumin (BSA; Sigma) and 0.3% Triton X-100 (Sigma) in PBS, and incubated overnight at 4° C. Cells were then washed 3 times with PBS, followed by incubation with Alexa Flor-647 conjugated secondary antibody (Life Technologies [Thermo Fisher Scientific]) and DAPI at room temperature for 1 hour. Cells were then washed 3 times with PBS and plates were sealed for imaging. αSMA staining was imaged by excitation at 630 nm and emission at 665 nm and quantified using the Compartmental Analysis program on the CellInsight CX5 (Thermo Scientific). Dead or apoptotic cells were excluded from analysis based on positive SYTOX green staining. % of total cells positive for αSMA were counted in each well and normalized to the average of 11 wells treated with TGF-β1 on the same plate using Dotmatics' Studies Software. The normalized averages (fold change over untreated) of 3 replicate wells for each compound concentration were used to create dose-responses curves and EC50 values were calculated using non-linear regression curve fit in the Dotmatics' Studies Software. For EC50 of >10 μM, the percent inhibition at 10 μM is provided.

Where only a bound is given, the exact number is not on record here.

Our source for the inhibition and EC50 values is patent publication US10392383B2, “3-(1H-benzo[d]imidazol-2-yl)-1H-pyrazolo[4,3-b]pyridines and therapeutic uses thereof” (Samumed, LLC, priority 2015, dated 2019).

Consider `CCCC(=O)Nc1cncc(-c2ccc3[nH]nc(-c4nc5c(-c6ccncc6)cccc5[nH]4)c3n2)c1` [Compound 129, N-(5-(3-(4-(Pyridin-4-yl)-1H-benzo[d]imidazol-2-yl)-1H-pyrazolo[4,3-b]pyridin-5-yl)pyridin-3-yl)butyramide], for which, in the assay with SW480 colon cancer cells, the inhibition (as a rule, the share of the control response that was lost under treatment) at 10 µM was 0% and the EC50 (as a rule, the concentration needed to bring the measured effect to its halfway point) is over 10 µM. Moreover, in assay [1], the inhibition at 10 µM was found to be 0% and the EC50 was over 10 µM.

Take `c1cc(-c2ccncc2)c2nc(-c3n[nH]c4ccc(-c5ccncc5)nc34)[nH]c2c1` [Compound 130, 5-(Pyridin-4-yl)-3-(4-(pyridin-4-yl)-1H-benzo[d]imidazol-2-yl)-1H-pyrazolo [4,3-b]pyridine]: the inhibition at 10 µM with SW480 colon cancer cells is 23.4%. The EC50 in the assay on SW480 colon cancer cells was over 10 µM; in assay [1] it was 1.07 µM.

On to `O=C(Nc1cncc(-c2ccc3[nH]nc(-c4nc5c(-c6ccncc6)cccc5[nH]4)c3n2)c1)C1CCCCC1` [Compound 135, N-(5-(3-(4-(pyridin-4-yl)-1H-benzo[d]imidazol-2-yl)-1H-pyrazolo[4,3-b]pyridin-5-yl)pyridin-3-yl)cyclohexanecarboxamide], for which, in the assay with SW480 colon cancer cells, the inhibition at 10 µM came out at 1% and the EC50 was over 10 µM. In assay [1], the inhibition at 10 µM is 0% and the EC50 is over 10 µM.

In the case of `CCNCc1cncc(-c2ccc3[nH]nc(-c4nc5c(-c6ccccn6)cccc5[nH]4)c3n2)c1` [Compound 146, N-((5-(3-(4-(Pyridin-2-yl)-1H-benzo[d]imidazol-2-yl)-1H-pyrazolo[4,3-b]pyridin-5-yl)pyridin-3-yl)methyl)ethanamine], the EC50 in the assay on SW480 colon cancer cells stood at 1.56 µM; in assay [1], 3.68 µM.

Consider `O=C(Nc1cncc(-c2ccc3[nH]nc(-c4nc5c(-c6ccccn6)cccc5[nH]4)c3n2)c1)c1ccccc1` [Compound 151, N-(5-(3-(4-(Pyridin-2-yl)-1H-benzo[d]imidazol-2-yl)-1H-pyrazolo[4,3-b]pyridin-5-yl)pyridin-3-yl)benzamide], for which, in the assay on SW480 colon cancer cells, the inhibition at 10 µM was found to be 20.8% and the EC50 was over 10 µM. Further, the EC50 in assay [1] stood at 5.11 µM.

In the case of `CCCCC(=O)Nc1cncc(-c2ccc3[nH]nc(-c4nc5c(-c6ccccn6)cccc5[nH]4)c3n2)c1` [Compound 159, N-(5-(3-(4-(Pyridin-2-yl)-1H-benzo[d]imidazol-2-yl)-1H-pyrazolo[4,3-b]pyridin-5-yl)pyridin-3-yl)pentanamide], the inhibition at 10 µM with SW480 colon cancer cells stood at 11%. The figures for the EC50 (in the assay with SW480 colon cancer cells; in assay [1]) were over 10 µM and 0.948 µM, respectively.

Consider `CCC(=O)Nc1cncc(-c2ccc3[nH]nc(-c4nc5c(N6CCCCC6)cccc5[nH]4)c3n2)c1` [Compound 169, N-(5-(3-(4-(Piperidin-1-yl)-1H-benzo[d]imidazol-2-yl)-1H-pyrazolo[4,3-b]pyridin-5-yl)pyridin-3-yl)propionamide], for which, in the assay on SW480 colon cancer cells, the inhibition at 10 µM is 41.4% and the EC50 was over 10 µM. The molecule also registered an EC50 in assay [1] of 0.158 µM.

As for `CN(C)c1cncc(-c2ccc3[nH]nc(-c4nc5c(N6CCCCC6)cccc5[nH]4)c3n2)c1` [Compound 175, N,N-dimethyl-5-(3-(4-(piperidin-1-yl)-1H-benzo[d]imidazol-2-yl)-1H-pyrazolo[4,3-b]pyridin-5-yl)pyridin-3-amine], the values for the EC50 (with SW480 colon cancer cells; in assay [1]) were 6.08 µM and 4.69 µM, respectively.

As for `CN(C)Cc1cncc(-c2ccc3[nH]nc(-c4nc5c(N6CCCCC6)cccc5[nH]4)c3n2)c1` [Compound 181, N,N-dimethyl-1-(5-(3-(4-(piperidin-1-yl)-1H-benzo[d]imidazol-2-yl)-1H-pyrazolo[4,3-b]pyridin-5-yl)pyridin-3-yl)methanamine], the EC50 turned out to be 1.14 µM in the assay with SW480 colon cancer cells and 0.785 µM in assay [1].

Take `CN1CCN(c2cccc3[nH]c(-c4n[nH]c5ccc(-c6cncc(N)c6)nc45)nc23)CC1` [Compound 227, 5-(3-(4-(4-Methylpiperazin-1-yl)-1H-benzo[d]imidazol-2-yl)-1H-pyrazolo [4,3-b]pyridin-5-yl)pyridin-3-amine]: in the assay on SW480 colon cancer cells, the inhibition at 10 µM is 18.4% and the EC50 was over 10 µM. In assay [1], the inhibition at 10 µM turned out to be 32.1% and the EC50 is over 10 µM.

On to `CC(C)C(=O)Nc1cncc(-c2ccc3[nH]nc(-c4nc5c(N6CCN(C)CC6)cccc5[nH]4)c3n2)c1` [Compound 233, N-(5-(3-(4-(4-Methylpiperazin-1-yl)-1H-benzo[d]imidazol-2-yl)-1H-pyrazolo[4,3-b]pyridin-5-yl)pyridin-3-yl)isobutyramide], for which, in the assay on SW480 colon cancer cells, the inhibition at 10 µM is 6.4% and the EC50 was over 10 µM. Further, in assay [1], the inhibition at 10 µM was 24.7% and the EC50 is over 10 µM.

As for `CN1CCN(c2cccc3[nH]c(-c4n[nH]c5ccc(-c6cncnc6)nc45)nc23)CC1` [Compound 251, 3-(4-(4-Methylpiperazin-1-yl)-1H-benzo[d]imidazol-2-yl)-5-(pyrimidin-5-yl)-1H-pyrazolo[4,3-b]pyridine], in the assay with SW480 colon cancer cells, the inhibition at 10 µM came out at 0% and the EC50 was over 10 µM. In assay [1], this molecule had an EC50 of 2.43 µM.

As to `O=C(Cc1ccccc1)Nc1cncc(-c2ccc3[nH]nc(-c4nc5ccccc5[nH]4)c3n2)c1` [Compound 262, N-(5-(3-(1H-Benzo[d]imidazol-2-yl)-1H-pyrazolo[4,3-b]pyridin-5-yl)pyridin-3-yl)-2-phenylacetamide], the figures for the inhibition at 10 µM (in the assay with SW480 colon cancer cells; in assay [1]) were 13.9% and 0%, respectively. In addition, the EC50 (in the assay with SW480 colon cancer cells; in assay [1]) was over 10 µM in each case.

In the case of `O=C(Nc1cncc(-c2ccc3[nH]nc(-c4nc5c(-c6ccsc6)cccc5[nH]4)c3n2)c1)c1ccccc1` [Compound 291, N-(5-(3-(4-(Thiophen-3-yl)-1H-benzo[d]imidazol-2-yl)-1H-pyrazolo[4,3-b]pyridin-5-yl)pyridin-3-yl)benzamide], the concentration giving a half-maximal response (EC50) in the assay with SW480 colon cancer cells came out at 3.46 µM; in assay [1] it was 2.62 µM.

For the molecule `Cc1ccc(-c2cccc3[nH]c(-c4n[nH]c5ccc(-c6cncc(NC(=O)C7CCCC7)c6)nc45)nc23)s1` [Compound 414, N-(5-(3-(4-(5-Methylthiophen-2-yl)-1H-benzo[d]imidazol-2-yl)-1H-pyrazolo [4,3-b]pyridin-5-yl)pyridin-3-yl)cyclopentanecarboxamide], the inhibition at 10 µM turned out to be 0% in the assay on SW480 colon cancer cells and 42.2% in assay [1]. The EC50 (in the assay on SW480 colon cancer cells; in assay [1]) was over 10 µM in each case.

Turning to `CS(=O)(=O)NCc1cc(F)cc(-c2cccc3[nH]c(-c4n[nH]c5ccc(-c6cncc(NC(=O)c7ccccc7)c6)nc45)nc23)c1` [Compound 487, N-(5-(3-(4-(3-Fluoro-5-(methylsulfonamidomethyl)phenyl)-1H-benzo[d]imidazol-2-yl)-1H-pyrazolo[4,3-b]pyridin-5-yl)pyridin-3-yl)benzamide], in the assay on SW480 colon cancer cells, the inhibition at 10 µM was 9.7% and the EC50 was over 10 µM. Besides, in assay [1], the inhibition at 10 µM amounted to 0% and the 50% effective concentration (EC50) was over 10 µM.
